Source: ChEMBL document CHEMBL5230082, “Recent advances in steroid amino acid conjugates: Old scaffolds with new dimensions” (Eur J Med Chem, 2020)
Values after ≈ are worked out from the molar mass of the structure shown.

How the values were obtained:
[1] = Anticancer activity against human U-87 MG cells assessed as growth inhibition; type: functional, U-87MG ATCC
[2] = molecular target: Human immunodeficiency virus type 1 protease (Human immunodeficiency virus 1, UniProt Q72874); experiment: Inhibition of HIV-1 protease assessed as inhibition
Rattus norvegicus [3] = experiment: Antiarrhythmic activity in pentobarbital anesthetized rat model assessed as ventricular fibrillation at 10 mg/kg, iv relative to control; type: functional
Rattus norvegicus [4] = experiment: Antiarrhythmic activity in pentobarbital anesthetized rat model assessed as number of ventricular ectopics at 10 mg/kg, iv; type: functional
Shigella flexneri = experiment: Antibacterial activity against Shigella flexneri; type: functional
Acinetobacter baumannii = experiment: Antibacterial activity against Acinetobacter baumannii; type: functional
Klebsiella pneumoniae = experiment: Antibacterial activity against Klebsiella pneumoniae; type: functional
Escherichia coli = experiment: Antibacterial activity against Escherichia coli; type: functional
Staphylococcus aureus [5] = experiment: Antibacterial activity against Staphylococcus aureus; type: functional
Streptococcus oralis = experiment: Antibacterial activity against Streptococcus oralis; type: functional
Pseudomonas aeruginosa = experiment: Antibacterial activity against Pseudomonas aeruginosa; type: functional
Streptococcus pneumoniae = experiment: Antibacterial activity against Streptococcus pneumoniae; type: functional
Bacillus subtilis = experiment: Antibacterial activity against Bacillus subtilis; type: functional
Salmonella typhimurium = experiment: Antibacterial activity against Salmonella enterica subsp. enterica serovar Typhimurium; type: functional
MDA-MB-231 = experiment: Anticancer activity against human MDA-MB-231 cells assessed as growth inhibition; type: functional
[6] = Inhibition of Sialyltransferase (unknown origin); parameters: species or system Homo sapiens
Globisporangium ultimum = experiment: Antifungal activity against Globisporangium ultimum assessed as fungal growth inhibition per disk; type: functional
Cladosporium cucumerinum [7] = experiment: Antifungal activity against Cladosporium cucumerinum assessed as zone of inhibition at 60 ug per disc; type: functional; conditions: read-out: DIZ
Candida albicans [8] = experiment: Antifungal activity against Candida albicans assessed as fungal growth inhibition per disk; type: functional
Cladosporium cucumerinum [9] = experiment: Antifungal activity against Cladosporium cucumerinum assessed as zone of inhibition at 30 ug per disc; type: functional; conditions: read-out: DIZ
Staphylococcus aureus [10] = experiment: Antibacterial activity against Staphylococcus aureus assessed as bacterial growth inhibition per disk; type: functional
[11] = molecular target: Ephrin type-A receptor 2/Ephrin-A1 (Homo sapiens, UniProt P20827+P29317); experiment: Inhibition of EPhA2-ephrin-A1 (unknown origin) protein-protein interaction; type: protein assay
SH-SY5Y = experiment: Neuroprotective activity against H2O2-induced human SH-SY5Y cell injury by MTT assay relative to control; type: functional
Integrin alpha-M/beta-2 = Integrin alpha-M/beta-2 (Homo sapiens, UniProt P05107+P11215); experiment: Antagonist activity at integrin CD11B/CD18 (unknown origin); type: protein-complex assay
[12] = Cytotoxicity against human A2780cis cells assessed as reduction in cell viability incubated for 72 hrs; type: functional, cell-based
Candida albicans [13] = experiment: Antifungal activity against Candida albicans assessed as zone of inhibition at 100 ug per disc; type: functional; conditions: read-out: DIZ
HeLa = experiment: Cytotoxicity against human HeLa cells assessed as reduction in cell viability; type: functional, cell-based
Staphylococcus aureus [14] = experiment: Antibacterial activity against methicillin-resistant Staphylococcus aureus; type: functional
Rattus norvegicus [15] = experiment: Antiarrhythmic activity in pentobarbital anesthetized rat model assessed as death rate at 10 mg/kg, iv relative to control; type: functional

Integrin alpha-M/beta-2, sequence (P05107 23-769 limits assumed, other chains not shown): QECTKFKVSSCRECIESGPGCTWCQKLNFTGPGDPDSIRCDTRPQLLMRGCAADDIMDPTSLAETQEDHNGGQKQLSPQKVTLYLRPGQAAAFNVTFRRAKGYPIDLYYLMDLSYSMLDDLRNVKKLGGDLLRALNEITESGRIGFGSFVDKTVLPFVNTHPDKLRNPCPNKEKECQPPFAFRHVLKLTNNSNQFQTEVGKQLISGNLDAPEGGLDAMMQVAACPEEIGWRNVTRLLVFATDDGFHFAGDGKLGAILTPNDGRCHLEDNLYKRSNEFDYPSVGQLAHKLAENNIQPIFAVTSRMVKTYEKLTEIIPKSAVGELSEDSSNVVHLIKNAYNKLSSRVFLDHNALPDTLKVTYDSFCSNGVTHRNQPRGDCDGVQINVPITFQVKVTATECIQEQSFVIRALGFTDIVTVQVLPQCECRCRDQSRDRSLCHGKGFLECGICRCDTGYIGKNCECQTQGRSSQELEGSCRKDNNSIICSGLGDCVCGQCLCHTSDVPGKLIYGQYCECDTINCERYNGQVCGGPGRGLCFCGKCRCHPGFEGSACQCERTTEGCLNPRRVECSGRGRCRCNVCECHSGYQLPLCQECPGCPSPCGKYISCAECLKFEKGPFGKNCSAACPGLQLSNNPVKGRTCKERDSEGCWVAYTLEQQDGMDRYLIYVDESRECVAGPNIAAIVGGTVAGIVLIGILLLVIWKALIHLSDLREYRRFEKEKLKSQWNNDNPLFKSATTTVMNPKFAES
Ephrin type-A receptor 2/Ephrin-A1, sequence (P29317 whole entry): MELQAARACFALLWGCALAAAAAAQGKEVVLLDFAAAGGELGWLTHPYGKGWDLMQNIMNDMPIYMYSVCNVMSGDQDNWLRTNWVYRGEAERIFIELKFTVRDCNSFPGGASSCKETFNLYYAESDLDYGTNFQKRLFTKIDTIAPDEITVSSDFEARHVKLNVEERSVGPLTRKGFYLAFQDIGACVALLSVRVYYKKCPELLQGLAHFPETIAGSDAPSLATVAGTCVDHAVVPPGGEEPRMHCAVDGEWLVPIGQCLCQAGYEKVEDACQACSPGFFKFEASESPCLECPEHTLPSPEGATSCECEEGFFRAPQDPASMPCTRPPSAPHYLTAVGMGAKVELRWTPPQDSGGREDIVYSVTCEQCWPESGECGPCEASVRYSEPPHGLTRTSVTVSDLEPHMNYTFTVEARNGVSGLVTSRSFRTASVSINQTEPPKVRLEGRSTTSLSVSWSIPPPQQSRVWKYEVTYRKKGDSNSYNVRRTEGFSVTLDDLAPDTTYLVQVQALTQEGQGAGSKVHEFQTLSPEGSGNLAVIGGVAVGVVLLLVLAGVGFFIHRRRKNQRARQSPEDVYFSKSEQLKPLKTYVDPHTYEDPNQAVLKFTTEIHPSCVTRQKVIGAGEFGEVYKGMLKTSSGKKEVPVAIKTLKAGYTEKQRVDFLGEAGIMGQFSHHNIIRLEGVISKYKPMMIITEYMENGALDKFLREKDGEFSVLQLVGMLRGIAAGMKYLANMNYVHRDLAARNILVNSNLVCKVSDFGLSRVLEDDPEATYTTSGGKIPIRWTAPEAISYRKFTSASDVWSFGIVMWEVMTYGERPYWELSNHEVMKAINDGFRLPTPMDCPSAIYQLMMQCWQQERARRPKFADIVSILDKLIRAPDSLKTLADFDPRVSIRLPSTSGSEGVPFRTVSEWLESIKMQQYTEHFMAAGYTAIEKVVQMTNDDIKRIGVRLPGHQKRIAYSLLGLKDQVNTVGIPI
Ephrin type-A receptor 2/Ephrin-A1, sequence (P20827 whole entry): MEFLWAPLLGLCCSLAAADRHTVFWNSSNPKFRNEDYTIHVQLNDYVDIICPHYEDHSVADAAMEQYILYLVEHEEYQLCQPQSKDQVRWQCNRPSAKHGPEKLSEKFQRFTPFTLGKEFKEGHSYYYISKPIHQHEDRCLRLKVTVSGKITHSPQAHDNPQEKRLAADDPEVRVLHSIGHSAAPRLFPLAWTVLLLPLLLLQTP

Structure (SMILES): CC(C)[C@H](NC(=O)CC[C@@H](C)[C@H]1CC[C@H]2[C@@H]3[C@H](O)C[C@@H]4C[C@H](O)CC[C@]4(C)[C@H]3C[C@H](O)[C@]12C)C(=O)Nc1ccncc1
- GI50 [1]: 2.46 µM

Structure (SMILES): C[C@H](CCC(=O)N[C@H](CC(=O)OCc1ccccc1)C(=O)O)[C@H]1CC[C@H]2[C@@H]3[C@H](O)C[C@@H]4C[C@H](O)CC[C@]4(C)[C@H]3C[C@H](O)[C@]12C
- IC50 [2]: 125 µM

Structure (SMILES): C[C@]12C[C@H](O)[C@@H](NC(=O)CN)C[C@H]1CC[C@@H]1[C@@H]2CC[C@]2(C)C(=O)CC[C@@H]12
- Activity (Rattus norvegicus [3]): 11%
- Activity (Rattus norvegicus [4]): 172

Structure (SMILES): CCCCCCOC(=O)CC[C@@H](C)[C@H]1CC[C@H]2[C@@H]3[C@H](OC(=O)CN)C[C@@H]4C[C@H](OC(=O)CN)CC[C@]4(C)[C@H]3C[C@H](OC(=O)CN)[C@]12C
- MIC99 (Shigella flexneri): 4 µM (≈ 2.66 µg/mL)
- MIC99 (Acinetobacter baumannii): 4 µM (≈ 2.66 µg/mL)
- MIC99 (Klebsiella pneumoniae): 4 µM (≈ 2.66 µg/mL)
- MIC99 (Escherichia coli): 4 µM (≈ 2.66 µg/mL)
- MIC (Staphylococcus aureus [5]): 4 µM (≈ 2.66 µg/mL)
- MIC (Streptococcus oralis): 4 µM (≈ 2.66 µg/mL)
- MIC99 (Pseudomonas aeruginosa): 4 µM (≈ 2.66 µg/mL)
- MIC (Streptococcus pneumoniae): 4 µM (≈ 2.66 µg/mL)
- MIC (Bacillus subtilis): 4 µM (≈ 2.66 µg/mL)
- MIC99 (Salmonella typhimurium): 4 µM (≈ 2.66 µg/mL)

Structure (SMILES): Cc1ccc(NC(=O)[C@H](C)NC(=O)CC[C@@H](C)[C@H]2CC[C@H]3[C@@H]4[C@H](O)C[C@@H]5C[C@H](O)CC[C@]5(C)[C@H]4C[C@H](O)[C@]23C)cc1
- GI50 [1]: 1.62 µM
- GI50 (MDA-MB-231): 4.52 µM

Structure (SMILES): CC(C)[C@H](N)C(=O)NCC(=O)OO[C@H]1C[C@H]2[C@@H]([C@H](OC(=O)CNC(=O)[C@@H](N)C(C)C)C[C@@H]3C[C@H](OC(=O)CNC(=O)[C@@H](N)C(C)C)CC[C@@]32C)[C@@H]2CC[C@H]([C@H](C)CCC(=O)OCc3ccccc3)[C@@]12C
- MIC (Acinetobacter baumannii): 16 µM (≈ 15.7 µg/mL)
- MIC (Klebsiella pneumoniae): 16 µM (≈ 15.7 µg/mL)
- MIC (Escherichia coli): 8 µM (≈ 7.87 µg/mL)

Structure (SMILES): C[C@H](CCC(=O)O)[C@H]1CC[C@H]2[C@@H]3CC[C@@H]4C[C@H](OC(=O)[C@H](N)CC(=O)O)CC[C@]4(C)[C@H]3CC[C@]12C
- IC50 [6]: 6 µM

Structure (SMILES): C[C@H](CCCn1cc(CCCC(=O)O)nn1)[C@H]1CC[C@H]2[C@@H]3CC[C@@H]4C[C@H](O)CC[C@]4(C)[C@H]3CC[C@]12C
- IC50 [6]: 5 µM

Structure (SMILES): C=C(C(=O)N[C@H](C(=O)O)c1ccc(OC)cc1)C(C)CC[C@@H](C)[C@H]1CCC2=C3CC[C@H]4[C@H](C)[C@@H](OS(=O)(=O)O)CC[C@]4(C)[C@H]3CC[C@@]21C (some centres undefined)
- MIC (Globisporangium ultimum): 25 µg
- zone of inhibition at 60 µg/disc (Cladosporium cucumerinum [7]): 8 mm
- MIC (Candida albicans [8]): 75 µg
- zone of inhibition at 30 µg/disc (Cladosporium cucumerinum [9]): 10.1 mm
- MIC (Staphylococcus aureus [10]): 100 µg

Structure (SMILES): Cc1c(NC(=O)[C@H](C)NC(=O)CC[C@@H](C)[C@H]2CC[C@H]3[C@@H]4[C@H](O)C[C@@H]5C[C@H](O)CC[C@]5(C)[C@H]4C[C@H](O)[C@]23C)c(=O)n(-c2ccccc2)n1C
- GI50 [1]: 2.49 µM

Structure (SMILES): CCCP(=O)(OCC)C(Cc1cn(CCC[C@@H](C)[C@H]2CC[C@H]3[C@@H]4CC[C@@H]5C[C@H](O)CC[C@]5(C)[C@H]4CC[C@]23C)nn1)C(=O)O (some centres undefined)
- IC50 [6]: 7 µM

Structure (SMILES): C[C@H](CCC(=O)O)[C@H]1CC[C@H]2[C@@H]3CC[C@@H]4CCCC[C@]4(C)[C@H]3CC[C@]12C [URSOCHOLANIC ACID]
- Ki [11]: 5.1 µM

Structure (SMILES): COC(=O)[C@H](Cc1ccccc1)NC(=O)[C@@H](C)CC[C@H]1O[C@H]2C[C@H]3[C@@H]4CC[C@@H]5C[C@@H](OC)CC[C@]5(C)[C@H]4CC[C@]3(C)[C@H]2[C@@H]1C
- Activity (SH-SY5Y): 102.2%

Structure (SMILES): CO[C@H]1CC[C@@]2(C)[C@@H](CC[C@H]3[C@@H]2CC[C@@]2(C)[C@H]3C[C@H](C(=O)N[C@@H](CCCNC(=N)N)C(=O)NCC(=O)N[C@@H](CC(=O)O)C(N)=O)O[C@]23CCCO3)C1
- IC50 (Integrin alpha-M/beta-2): 6.5 µM

Structure (SMILES): CC(C)CCC[C@@H](C)[C@H]1CC[C@H]2[C@@H]3CC=C4C[C@@H](OC(=O)N[C@H](Cc5ccc(O)cc5)C(=O)O)CC[C@]4(C)[C@H]3CC[C@]12C
- IC50 [12]: 50 µM

Structure (SMILES): C=C(C(=O)N[C@H](C(=O)O)c1ccc(OC)cc1)C(C)CC[C@@H](C)[C@H]1CCC2=C3[C@H](OC)C[C@H]4[C@H](C)[C@@H](OS(=O)(=O)O)CC[C@]4(C)[C@H]3CC[C@@]21C (some centres undefined)
- zone of inhibition at 100 µg/disc (Candida albicans [13]): 9.8 mm
- zone of inhibition at 60 µg/disc (Cladosporium cucumerinum [7]): 8 mm
- zone of inhibition at 30 µg/disc (Cladosporium cucumerinum [9]): 10.1 mm

Structure (SMILES): COc1cccc2c1C(=O)c1c(O)c3c(c(O)c1C2=O)C[C@@](O)(C(=O)CO)C[C@@H]3O[C@H]1C[C@H](N)[C@H](O)[C@H](C)O1 [DOXORUBICIN]
- GI50 [1]: 2.6 µM
- GI50 (MDA-MB-231): 1 µM

Structure (SMILES): CO[C@H]1CC[C@@]2(C)[C@@H](CC[C@H]3[C@@H]2CC[C@@]2(C)[C@H]3C[C@H](C(=O)N[C@@H](CCCNC(=N)N)C(=O)NCC(=O)N[C@@H](CC(=O)O)C(=O)NCc3ccccc3)O[C@]23CCCO3)C1
- IC50 (Integrin alpha-M/beta-2): 10.9 µM

Structure (SMILES): CC(C)CCC[C@@H](C)[C@H]1CC[C@H]2[C@@H]3CC=C4C[C@@H](OC(=O)N[C@H](Cc5ccc(OP(=O)(O)O)cc5)C(=O)O)CC[C@]4(C)[C@H]3CC[C@]12C
- IC50 (HeLa): 16 µM

Structure (SMILES): CC[C@H](C)[C@H](NC(=O)CC[C@@H](C)[C@H]1CC[C@H]2[C@@H]3[C@H](O)C[C@@H]4C[C@H](O)CC[C@]4(C)[C@H]3C[C@H](O)[C@]12C)C(=O)Nc1ccccc1
- GI50 (MDA-MB-231): 1.35 µM

Structure (SMILES): COC(=O)CCCN[C@@H]1CC[C@@]2(C)[C@H](C1)C[C@@H](NCCCC(=O)OC)[C@@H]1[C@@H]2CC[C@]2(C)[C@@H]([C@H](C)CCCC(C)C)CC[C@@H]12
- MIC (Staphylococcus aureus [14]): 2 mg/L (≈ 3.32 µM)

Structure (SMILES): C[C@]12C[C@H](O)[C@@H](N)C[C@@H]1CC[C@@H]1[C@@H]2CC[C@]2(C)C(=O)CC[C@@H]12 [AMAFOLONE]
- Activity (Rattus norvegicus [3]): 13%
- Activity (Rattus norvegicus [15]): 0%
- Activity (Rattus norvegicus [4]): 213
